Where “and” joins values, the source holds several entries; their conditions need not be identical. Equal values may be shown once. Calls of active or inactive are those of the source.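 How the source made its calls: active means 40% activation versus positive control reached by fitted dose-response curve at or below highest valid tested dose; inconclusive means poor fit quality, or flat fit with activation between 30% and 70%; inactive means the rest.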
Test system: 68-5-11 mouse fibroblast XiGFP reporter, % GFP-positive imaging, 3 d
Experiment: inactive X chromosome reactivation in XiGFP fibroblasts, dose response, imaging, 68-5-11 mouse fibroblasts, GFP, cherry-pick (AID 743394);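 further: sensitizer 5-aza-dC present in the wells at 0.5 mM final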
Conditions: not given
`CC1=CC(=Cc2sc3ccccc3[n+]2C)C=C(C)O1` gave an AC40 of 7.67 µM.

Same assay, conditions: cells co-treated with 5-aza-dC sensitizer
With `O=[N+]([O-])c1ccc(N/N=C/c2ccc[nH]2)cc1` the AC40 was > 19.5 µM (inactive). `Cc1ccc(Cl)c2c(N=Nc3ccccc3)c(O)[nH]c12` gave an AC40 of 7.83 µM. With `COc1ccc(Cn2cc3c(-c4ccc(F)cc4)nnc-3c3cc(OC)c(OC)cc32)cc1` the AC40 was 4.05 µM. Molecule `C#Cc1cc(N2CCN(C(=O)c3ccoc3)CC2)n2nc(-c3cccc(Cl)c3)cc2n1` has an AC40 of 8.99 µM. In the case of `O=C1c2cccc3c([N+](=O)[O-])ccc(c23)C(=O)N1Cc1cccnc1`, the AC40 is reported as 10.1 µM. In the case of `CCCCNc1ccc2c3c(cccc13)C(=O)N(CCCC)C2=O`, the AC40 is reported as 0.927 µM. `CC[n+]1c(/C=C/C=C/N(C(C)=O)c2ccccc2)sc2cc(OC)ccc21` gave an AC40 of 1.16 µM. `COc1ccc(C(=O)c2sc3nc(C)cc(-c4cccs4)c3c2N)cc1` showed an AC40 of 7.57 µM. With `C[C@H]1CCCCO[C@H](CN(C)S(=O)(=O)c2ccc(Cl)cc2)[C@@H](C)CN([C@@H](C)CO)C(=O)c2cc(NC(=O)Nc3ccccc3)ccc2O1` the AC40 was > 19.5 µM (inactive). For `Cc1ccc(S(=O)(=O)N2CC3(O)CN(C(=O)OC(C)C)N(C(=O)OC(C)C)CC3(OC(=O)NCc3ccccc3)C2)cc1` (configuration not stated), the AC40 was 13.8 µM. Work on `CCN1CCc2c(sc(NC(=O)Nc3ccc(Cl)c(Cl)c3)c2C(N)=O)C1` yielded an AC40 of 0.196 µM. Work on `COc1cc(/C=C/c2ccc3cccc(O)c3n2)c(Br)cc1O` yielded an AC40 of 14 µM. In the case of `N#C/C(=C\c1ccc(N2CCCCC2)o1)C(=O)Nc1cccc(Br)c1`, the AC40 is reported as 0.406 µM. For `CC(=NNc1nc2ccccc2o1)c1cc2ccccc2cn1`, the AC40 was 2.86 µM. Work on `Cc1cc(C)c2cc3c(N)c(C(=O)Nc4c(C)[nH]c(=O)[nH]c4=O)sc3nc2c1` yielded an AC40 of 19.3 µM. For `CCN1C(=O)[C@@H]2Cc3c([nH]c4ccccc34)C(c3cc(OC)c(OC)c(OC)c3)N2C1=S` (some centres not stated), the AC40 was > 19.5 µM (inactive). `CC(=O)[C@@]1(O)Cc2c(O)c3c(c(O)c2[C@H](O[C@H]2C[C@H](N)[C@H](O)[C@H](C)O2)C1)C(=O)c1ccccc1C3=O` gave an AC40 of 1.09 µM. In the case of `CC(=O)Nc1sc(/C(C#N)=C/c2ccc(Cl)c(Cl)c2)nc1-c1ccc(C)cc1`, the AC40 is reported as 1.92 µM. For `CCN1CCc2c(sc(NC(=O)c3ccc(S(=O)(=O)N(CC)c4ccccc4)cc3)c2C(N)=O)C1`, the AC40 was > 19.5 µM (inactive). For `COc1ccc(NC(=O)C(C)N2C(=O)c3ccccc3C2=O)c(OC)c1` (configuration not stated), the AC40 was 9.06 µM. Molecule `CC(NC(=O)/C(C#N)=C/c1ccc([N+](=O)[O-])o1)c1ccccc1` (configuration not stated) has an AC40 of 6.75 µM. For `COc1cc(NS(=O)(=O)c2ccc3ccccc3c2)c2ncccc2c1`, the AC40 was > 19.5 µM (inactive). Work on `CC(C)N1CCc2c(sc(NC(=O)c3ccc4ccccc4c3)c2C(N)=O)C1` yielded an AC40 of 13.3 µM. `Nc1c(C(=O)Nc2ccc(S(=O)(=O)N3CCCC3)cc2)sc2nc3cc4c(cc3cc12)CCC4` gave an AC40 of 4.29 µM. For `CCN1/C(=C/C=C/c2oc3ccc(-c4ccccc4)cc3[n+]2CC)Oc2ccc(-c3ccccc3)cc21`, the AC40 was 0.00228 µM. For `CCOC(=O)Cn1c(=O)c(-c2cc(Br)ccc2N)nc2ccccc21`, the AC40 was 12.5 µM. With `COc1ccc2nc(C)cc(NCc3ccc(F)cc3)c2c1` the AC40 was 4.9 µM. For `CCOCCCNC(=O)/C(C#N)=C/c1ccc([N+](=O)[O-])o1`, the AC40 was > 19.5 µM (inactive). With `COc1ccccc1-[n+]1c(C)cc(/C=C2\Sc3ccccc3N2C)cc1C` the AC40 was 0.249 µM. For `CC(C)CCN1CCN(Cc2cc3ccccc3[nH]2)CC1CCO` (configuration not stated), the AC40 was 16.4 µM. With `Cc1cc(/C=C2\SC(=S)N(Cc3ccco3)C2=O)c(C)n1-c1ccccc1` the AC40 was > 19.5 µM (inactive). Molecule `Cc1ccc(C(=O)c2oc3ccccc3c2NC(=O)c2cc(-c3ccccc3O)n[nH]2)cc1` has an AC40 of 12.8 µM. For `O=[N+]([O-])c1ccc(/C=C/C2=NN(c3ccccc3)C(c3ccco3)C2)cc1` (configuration not stated), the AC40 was 1.81 µM. For `O=C(NCc1ccccc1)c1cccc2c1C(=O)c1ccc(/C=C/c3ccccc3)cc1S2(=O)=O`, the AC40 was 8.5 µM. In the case of `COC(=O)C1=C(C)NC(C)=C(C(=O)OC)C1C(=O)OCC(=O)c1ccc(F)cc1`, the AC40 is reported as 15.3 µM. In the case of `CCCN1CCN(C(=O)C2CCN(c3nnc(C)c4c(C)n(-c5ccc(C)cc5)nc34)CC2)CC1`, the AC40 is reported as 8.7 µM. With `CN(C)CCN(Cc1ccc(Cl)cc1)c1ccccn1` the AC40 was > 2.1 µM (inactive). For `COC1=CC(=O)c2c(ccc3ncnc(N)c23)C1=O`, the AC40 was 9.69 µM. With `C[n+]1c2cc(N)ccc2cc2ccc(N)cc21` the AC40 was 0.297 µM and 0.116 µM. For `Cc1ccc(C(=O)N/C(=C/c2ccc(-c3ccc([N+](=O)[O-])cc3)o2)C(=O)NCCCN(C)C)cc1`, the AC40 was 4.28 µM. For `CCOC(=O)/C(=C/C=C1\Sc2cc(C)c(C)cc2N1CC)C(C)=O`, the AC40 was 16.9 µM. Molecule `CC(C)(C)NC(=S)N/N=C\c1ccc(-c2ccc([N+](=O)[O-])cc2)o1` has an AC40 of 5.94 µM. For `CCCN1C(=O)S/C(=C\c2ccc(N3CCOCC3)o2)C1=O`, the AC40 was > 19.5 µM (inactive). Molecule `CCCCN(C)C1=CC2=CC(=C(C#N)C#N)CCC2CC1` (configuration not stated) has an AC40 of 2.86 µM. For `Nc1c(C(=O)c2cccs2)sc2nsc(SCCN3CCCCC3)c12`, the AC40 was 2.57 µM. For `CCN1/C(=C/c2ccc3cc(C)cc(C)c3[n+]2CC)Sc2cc(C)ccc21`, the AC40 was 0.507 µM. With `Cc1cc(N/N=C/c2ccc([N+](=O)[O-])o2)nc2ccccc12` the AC40 was 8.4 µM. Molecule `COc1ccc(-[n+]2c(C)cc(/C=C3\Sc4ccccc4N3C)cc2C)cc1` has an AC40 of 0.22 µM. For `NC(=O)c1c(NC(=O)c2ccccc2)sc2c1CCN(Cc1ccccc1)C2`, the AC40 was 15.8 µM. Molecule `CC1=NN(c2nc(N)nc(/C(C#N)=C/c3ccc([N+](=O)[O-])o3)n2)C(C)(C)C1` has an AC40 of 2.18 µM. With `COc1ccc(C(=O)c2sc3nc(C)cc(-c4cccs4)c3c2N)cc1OC` the AC40 was > 19.5 µM (inactive). For `Cn1cc(/C=C/c2cc[n+](C)cc2)c2cc(Cl)ccc21`, the AC40 was > 19.5 µM (inactive). `CCN1/C(=C/c2ccc3cc(C)ccc3[n+]2CC)Sc2cc(C)ccc21` gave an AC40 of 2.16 µM. With `CC(=O)Oc1cccc(N2C(=O)c3cccc4c([N+](=O)[O-])ccc(c34)C2=O)c1` the AC40 was 5.28 µM. `Nc1c(C(=O)c2ccccc2)sc2nsc(SCCN3CCCC3)c12` showed an AC40 of 8.3 µM. With `C/C(=N\Nc1ncnc2sc(C)c(C)c12)c1ccccn1` the AC40 was 0.784 µM. `Nc1c(Br)cc2c3c(cccc13)-c1ccccc1-2` gave an AC40 of 12.6 µM. For `N#C/C(=C/c1ccc(N2CCCCC2)o1)C(=O)NCCc1c[nH]c2ccccc12`, the AC40 was 4.77 µM. `COc1cc2c3nnc(-c4ccccc4)c-3cn(Cc3ccccc3F)c2cc1OC` showed an AC40 of 1.27 µM. Molecule `Cc1ccc2cc3c(N)c(C(=O)Nc4c(C)[nH]c(=O)[nH]c4=O)sc3nc2c1` has an AC40 of 13.2 µM. For `CN(C)S(=O)(=O)c1ccc2c(c1)/C(=C/c1cc3c([nH]1)CCCC3)C(=O)N2`, the AC40 was 1.58 µM. Work on `Cc1ccc(NC(=O)/C=C/c2ccc([N+](=O)[O-])s2)c(C)c1` yielded an AC40 of 1.68 µM. In the case of `Oc1ccc(/C=N/Nc2ccnc3cc(Cl)ccc23)c(O)c1`, the AC40 is reported as > 19.5 µM (inactive). Molecule `CN(C)CCCN1C(=O)c2cccc3c([N+](=O)[O-])ccc(c23)C1=O` has an AC40 of 6.06 µM. For `Cc1ccccc1OCC(O)CNC1CCC(NCC(O)COc2ccccc2C)CC1` (configuration not stated), the AC40 was > 19.5 µM (inactive). In the case of `N#C/C(=C/c1ccc(N2CCCCC2)o1)C(=O)Nc1ccc2ccccc2c1`, the AC40 is reported as 0.297 µM. Work on `COc1ccccc1N1N=C(c2ccc([N+](=O)[O-])cc2)CC1c1ccccc1` (configuration not stated) yielded an AC40 of 18.4 µM. For `CN1CCc2c(sc(NC(=O)c3ccc(S(=O)(=O)N4CCc5ccccc54)cc3)c2C(N)=O)C1`, the AC40 was 8.93 µM. In the case of `COc1cc(N2CCCC2)c(OC)cc1/C=C1/NC(=S)NC1=O`, the AC40 is reported as > 19.5 µM (inactive). `CCN1/C(=C\c2ccc3cc(C)ccc3[n+]2CC)Sc2cc(C)c(C)cc21` showed an AC40 of 5.57 µM. Work on `CCC(CO)[n+]1c(C)cc(/C=C2\Sc3ccccc3N2Cc2ccccc2)cc1C` (configuration not stated) yielded an AC40 of 1.55 µM. Work on `CC(C)CCN1C(=O)c2cccc3c(N)ccc(c23)C1=O` yielded an AC40 of 7.46 µM. For `Cc1cccc(-c2cccc3[nH]c4c(c23)CCN2C(=O)[C@H]3[C@H](C)ON(C)[C@H]3C[C@@H]42)c1`, the AC40 was 10.8 µM. `O=[N+]([O-])c1ccc(N/N=C/c2sc(N3CCOCC3)nc2-c2ccccc2)c(S(=O)(=O)Nc2ccc(Cl)cc2)c1` gave an AC40 of 1.72 µM. With `COc1cc2c3nnc(-c4ccc(F)cc4)c-3cn(Cc3cccc(C)c3)c2cc1OC` the AC40 was 3.74 µM. With `CC(=O)Nc1cc2c3c(cccc3c1)-c1ccccc1-2` the AC40 was 2.56 µM. Work on `CCN(CC)c1ccc2cc(C(=O)c3cccs3)c(=O)oc2c1` yielded an AC40 of 5.34 µM.

Test system: not listed separately
Experiment: as above
Conditions: 68-5-11 mouse fibroblast XiGFP reporter, % GFP-positive imaging, 3 d; at 19.5 µM (top of the series); cells co-treated with 5-aza-dC sensitizer; scaled: neutral wells 0, ellipticine wells 100
For `CCc1ccccc1OCC(=O)Nc1ccc(N2CCCC2)cc1C`, the activation was 0.109% (inactive). With `O=C(O)c1ccc(COc2ccccc2C=C2C(=O)c3ccccc3C2=O)cc1` the activation was 0.163% (inactive). With `COc1ccc(N2CCN(C(CNC(=O)c3ccc4c(c3)OCO4)c3ccco3)CC2)cc1` (configuration not stated) the activation was -0.08% (inactive). For `CN1OC[C@@H]2CN(Cc3ccccc3)[C@H](c3cccc(N4CCOCC4)c3)C[C@@H]21`, the activation was 0.022% (inactive). With `O=C(NC1=NN(c2ccccc2)CC1)Nc1ccccc1F` the activation was -0.003% (inactive). With `CCc1nc(C)cn1S(=O)(=O)c1ccc([N+](=O)[O-])cc1` the activation was -0.053% (inactive). In the case of `Nc1c(-c2ccccc2)c(CN2CCOCC2)nn1-c1ccc(C(=O)O)cc1`, the activation is reported as -0.014% (inactive). With `COc1cccc(CNC(=O)c2ccc(NC(=O)CC3SC(N4CCCC4)=NC3=O)cc2)c1` (configuration not stated) the activation was 0.01% (inactive). In the case of `Cc1cccc(OCC(=O)N(C)c2c(N)n(Cc3ccccc3)c(=O)[nH]c2=O)c1C`, the activation is reported as 0.012% (inactive). With `CCc1ccc(N2CC(C(=O)Nc3cc(C)on3)CC2=O)cc1` (configuration not stated) the activation was -0.034% (inactive). In the case of `Nc1ccccc1Sc1ccc(C(F)(F)F)cc1[N+](=O)[O-]`, the activation is reported as 0.953% (inactive). For `CC(C)(C)N(Cc1ccccc1)C(=O)COC(=O)c1ccc(N2CCCC2=O)cc1`, the activation was 0.165% (inactive). For `CCOC(=O)C1CCN(C(=O)c2ccc(NS(=O)(=O)c3ccc(F)cc3C)cc2)CC1`, the activation was 0.035% (inactive). In the case of `Cc1ccc(NC(=O)c2ccc(=O)[nH]c2)cc1S(=O)(=O)N1CCCCCC1`, the activation is reported as 0.105% (inactive). With `CN(C)CCCNC(=O)/C(=C\c1ccc(-c2ccc(Br)cc2)o1)NC(=O)c1ccccc1` the activation was -0.053% (inactive). With `Cc1ccsc1/C=N/n1c(-c2cc(-c3ccccc3)n[nH]2)n[nH]c1=S` the activation was 0.001% (inactive). With `COc1ccc(-c2ccc(C(=O)NCc3cccs3)c3occc23)c(C)c1` the activation was -0.032% (inactive). For `CCOC(=O)c1c(C)[nH]c(N=Nc2ccc(OC)cc2)c1C`, the activation was 1.01% (inactive). For `CC(OCCN(C)C)C(=O)C12CC3CC(CC(C3)C1)C2` (configuration not stated), the activation was 0.008% (inactive).

— PubChem BioAssay AID743394 (Broad Institute, 2014)
